Here are results for four compounds from US6350907B1, “Matrix metalloprotease inhibitors” (Pfizer Inc, priority 1998, dated 2002).

The IC50 is the concentration that gives 50% inhibition.

The target of one assay is T1, MMP-3 (Homo sapiens, UniProt P08254).
T1 construct: Catalytic domain MMP-2, MMP-3 and MMP-9 were prepared at Pfizer Central Research; made in house
Nature of the assay: Inhibition of MMP-3, cleavage of fluorogenic peptide. The class given is biochemical. The procedure: (§1) The ability of compounds to inhibit the cleavage of fluorogenic peptides by MMPs 1, 2, 3, 9 12, 13 and 14 is described below.
(§2) Catalytic domain MMP-2, MMP-3 and MMP-9 were prepared at Pfizer Central Research. […] MMP-3 was activated by the addition of 2 mM APMA, followed by incubation for 3 hours at 37° C. The enzymes were then diluted in Tris-HCl assay buffer (100 mM Tris, 100 mM NaCl, 10 mM CaCl2 and 0.16% Brij 35, pH 7.5), to a concentration of 10 nM. The final concentration of enzyme used in the assays was 1 nM.
The final substrate concentration used in the assay was 5 μM.
(§3) (iii) Determination of Enzyme Inhibition
Test compounds were dissolved in dimethyl sulphoxide and diluted with test buffer solution (as above) so that no more than 1% dimethyl sulphoxide was present. Test compound and enzyme were added to each well of a 96 well plate and allowed to equilibrate for 15 minutes at 37° C. in an orbital shaker prior to the addition of substrate.

In a further assay the target is T2, MMP-2 (Homo sapiens, UniProt P08253).
T2 construct: Catalytic domain MMP-2, MMP-3 and MMP-9 were prepared at Pfizer Central Research; made in house
Nature of the assay: Inhibition of MMP-2, cleavage of fluorogenic peptide. The class given is biochemical. Particulars: x = 2; read-out: MMP-2 inhibitor IC50. The procedure: as §1
(§4) The assays for MMPs 2, 3, 9, and 14 are based upon the original protocol described by Knight et al. (Fed.Euro.Biochem.Soc., 296 (3), 263-266; 1992) with the slight modifications given below.
as §2
(§5) The fluorogenic substrate used in this screen was Mca-Arg-Pro-Lys-Pro-Tyr-Ala-Nva-Trp-Met-Lys(Dnp)-NH2 (Bachem Ltd, Essex, UK) as originally described by Nagase et al (J.Biol.Chem., 269(33), 20952-20957, 1994). […] The final substrate concentration used in the assay was 5 μM. […]
(§6) Test compounds were dissolved in dimethyl sulphoxide and diluted with test buffer solution (as above) so that no more than 1% dimethyl sulphoxide was present. […] Plates were then incubated for 1 hour at 37° C. prior to determination of fluorescence using a fluorimeter (Fluostar; BMG LabTechnologies, Aylesbury, UK) at an excitation wavelength of 328 nm and emission wavelength of 393 nm.

In the next assay the target is T3, MMP-12 (Homo sapiens, UniProt P39900).
T3 construct: Catalytic domain MMP-12 (200 μg/ml) was used
Nature of the assay: Inhibition of MMP-12 (Human Macrophage Elastase), cleavage of fluorogenic peptide. The following applies: x = 12; read-out: MMP-12 inhibitor IC50. The class given is biochemical. The procedure:
as §1
Inhibition of MMP-12 (Human Macrophage Elastase)
Catalytic domain MMP-12 (200 μg/ml) was used. MMP-12 was diluted in Tris-HCl assay buffer (50 mM Tris, 200 mM NaCl, 5 mM CaCl2, 20 μM ZnSO4, 0.02% Brij 35) pH 7.4 to 240 ng/ml. The final concentration of enzyme used in the assay was 60 ng/ml.
The fluorogenic substrate used in this assay was DNP-Pro-Cha-Gly-Cys(Me)-His-Ala-Lys(NMA)-NH2. The final substrate concentration used in the assay was 10 μM.
as §3
Test compounds were dissolved in dimethyl sulphoxide and diluted with assay buffer so that no more than 1% dimethyl sulphoxide was present. Test compound and enzyme were added to each well of a 96 well plate and allowed to equilibrate for 15 minutes at room temperature in an orbital shaker prior to the addition of substrate. Plates were then incubated for 2 hours at room temperature prior to the determination of fluorescence (substrate cleavage) using a fluorimeter at an excitation wavelength of 360 nm and emission wavelength of 460 nm.

The target in another assay is T4, MMP-13 (Homo sapiens, UniProt P45452).
T4 construct: purchased PanVera Corporation (Madison, Wis.)
Nature of the assay: Inhibition of MMP-13, cleavage of fluorogenic peptide. The class given is biochemical. The following applies: x = 13; read-out: MMP-13 inhibitor IC50. The procedure:
as §1
Human recombinant MMP-13 was prepared by PanVera Corporation (Madison, Wis.) and characterized at Pfizer (Groton, Conn.). A 1.9 mg/ml stock was activated with 2 mM APMA for 2 hours at 37° C. MMP-13 was then diluted in assay buffer (50 mM Tris, 200 mM NaCl, 5 mM CaCl2, 20 μM ZnCl2 and 0.02% Brij 35) at pH 7.5 to a concentration of 5.3 nM. The final concentration of enzyme used in the assay was 1.3 nM.
The fluorogenic substrate used in this screen was Dnp-Pro-Cha-Gly-Cys(Me)-His-Ala-Lys(NMA)-NH2. The final substrate concentration used in the assay was 10 μM.
as §3
Test compounds were dissolved in dimethyl sulphoxide and diluted with assay buffer so that no more than 1% dimethyl sulphoxide was present. Test compound and enzyme were added to each well of a 96 well plate. The addition of substrate to each well initiated the reaction. Fluorescence intensity was determined on a 96 well plate fluorometer (Cytofluor II; PerSeptive Biosystems, Inc, Framingham, Mass.) at an excitation wavelength of 360 nm and emission wavelength of 460 nm.

The next assay deals with T5, MMP-14 (Homo sapiens, UniProt P50281).
T5 construct: Catalytic domain MMP-14 was purchased from Prof Tschesche; purchased Prof Tschesche, Department of Biochemistry, Faculty of Chemistry, University of Bielefeld, Germany
Nature of the assay: Inhibition of MMP-14, cleavage of fluorogenic peptide. The class given is biochemical. The following applies: x = 14; read-out: MMP-14 inhibitor IC50. The procedure: as §1, §4
Test compounds were dissolved in dimethyl sulphoxide and diluted with test buffer solution (as above) so that no more than 1% dimethyl sulphoxide was present. Test compound and enzyme were added to each well of a 96 well plate and allowed to equilibrate for 15 minutes at 37° C. in an orbital shaker prior to the addition of substrate. Plates were then incubated for 1 hour at 37° C. prior to determination of fluorescence using a fluorimeter (Fluostar; BMG LabTechnologies, Aylesbury, UK) at an excitation wavelength of 328 nm and emission wavelength of 393 nm.
Catalytic domain MMP-14 was purchased from Prof Tschesche, Department of Biochemistry, Faculty of Chemistry, University of Bielefeld, Germany. A 10 μM enzyme stock solution was activated for 20 minutes at 25° C. following the addition of 5 μg/ml of trypsin (Sigma, Dorset, UK). […]

Another assay addresses T6, MMP-9 (Homo sapiens, UniProt P14780).
T6 construct: Catalytic domain MMP-2, MMP-3 and MMP-9 were prepared at Pfizer Central Research; made in house
Kind of assay: Inhibition of MMP-9, cleavage of fluorogenic peptide. The class given is biochemical. Particulars: x = 9; read-out: MMP-9 inhibitor IC50. The procedure:
as §1, §4, §2, §5, §6

In the next assay the test system is keratinocyte migration. The following applies: in vitro; cited from earlier work.
Assay [1] deals with endothelial cell invasion of basement membrane. Particulars: thereby inhibiting angiogenesis; cited from earlier work.

T1 sequence (P08254 100-272 limits assumed): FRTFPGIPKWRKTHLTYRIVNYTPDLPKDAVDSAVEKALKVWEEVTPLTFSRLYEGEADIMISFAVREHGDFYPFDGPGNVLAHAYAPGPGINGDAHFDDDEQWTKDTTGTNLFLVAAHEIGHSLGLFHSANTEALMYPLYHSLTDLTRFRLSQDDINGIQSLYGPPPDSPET
T6 sequence (P14780 107-444 limits assumed): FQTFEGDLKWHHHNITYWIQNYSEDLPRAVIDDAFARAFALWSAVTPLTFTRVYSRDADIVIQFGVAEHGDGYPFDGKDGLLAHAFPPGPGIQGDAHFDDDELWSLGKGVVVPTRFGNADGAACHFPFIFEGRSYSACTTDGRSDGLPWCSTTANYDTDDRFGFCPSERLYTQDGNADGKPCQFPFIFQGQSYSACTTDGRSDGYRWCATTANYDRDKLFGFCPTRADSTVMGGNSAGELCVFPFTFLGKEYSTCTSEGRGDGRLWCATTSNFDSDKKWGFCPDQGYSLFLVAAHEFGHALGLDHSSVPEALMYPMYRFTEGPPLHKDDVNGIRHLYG
T3 sequence (P39900 106-263 limits assumed): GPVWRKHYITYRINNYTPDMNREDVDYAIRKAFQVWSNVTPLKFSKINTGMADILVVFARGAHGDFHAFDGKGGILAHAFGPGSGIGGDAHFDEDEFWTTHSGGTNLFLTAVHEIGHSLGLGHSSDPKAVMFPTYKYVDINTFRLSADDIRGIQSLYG
T2 sequence (P08253 110-446 limits assumed): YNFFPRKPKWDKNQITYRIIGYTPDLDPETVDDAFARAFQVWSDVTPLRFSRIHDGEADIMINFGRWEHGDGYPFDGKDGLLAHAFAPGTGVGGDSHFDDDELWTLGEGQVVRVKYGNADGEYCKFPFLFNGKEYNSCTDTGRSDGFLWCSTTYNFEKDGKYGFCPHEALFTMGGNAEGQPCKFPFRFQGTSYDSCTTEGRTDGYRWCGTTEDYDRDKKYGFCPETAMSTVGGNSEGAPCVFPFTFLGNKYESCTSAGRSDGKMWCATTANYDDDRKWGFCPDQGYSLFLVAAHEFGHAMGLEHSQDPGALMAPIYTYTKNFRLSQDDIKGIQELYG

In the case of `Cc1cc(CCC[C@H](CC(=O)O)C(=O)N[C@H](C(=O)N[C@H](C)c2ccccc2)C(C)(C)C)ccc1-c1ccccc1` [Example 1, (3R)-3-({[(1S)-2,2-dimethyl-1-({[(1R)-1-phenylethyl]amino}carbonyl)propyl]amino}carbonyl)-6-[(3-methyl-4-phenyl)phenyl]hexanoic acid], the “3/2sel: Selectivity for MMP-3 over MMP-2” value on MMP-3 worked out at 107. Besides, the IC50 against MMP-3 was 101 nM; on MMP-2, 10800 nM; at MMP-12, 85 nM.
`C[C@@H](NC(=O)[C@@H](NC(=O)[C@H](CCCc1ccc(-c2ccccc2)c(Cl)c1)CC(=O)NO)C(C)(C)C)c1ccccc1` [Example 2, (2R)-2-{3-[3-Chloro-(4-phenyl)phenyl]propyl}-N1-[(1S)-2,2-dimethyl-1-({[(1R)-1-phenylethyl]amino}carbonyl)propyl]-(N4-hydroxy)butanediamide.]: the IC50 on MMP-13 was determined as 130 nM; on MMP-14, 5650 nM; at MMP-9, 1910 nM.
Take `CNC(=O)[C@H](Cc1ccc(OC)cc1)NC(=O)[C@@H](CC(=O)NO)CC(C)C` [SC44463]: the “Inhibition of keratinocyte migration on a collagen type I matrix” value in the assay on keratinocyte migration is listed as “completely inhibited”.
On to `CNC(=O)[C@H](Cc1ccccc1)NC(=O)[C@H](CC(C)C)[C@H](CSc1cccs1)C(=O)NO` [BB94, (2S,3R)-5-methyl-3-{[(1S)-1-(methylcarbamoyl)-2-phenylethyl]carbamoyl}-2-[(2-thienylthio)methyl]hexanohydroxamic acid], for which, in assay [1], the “Inhibition of endothelial cell invasion of basement membrane” value is listed as “inhibits endothelial cell invasion of basement membrane”.
